Test results from ChEMBL document CHEMBL1201862, “PubChem BioAssay data set” (2004).
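Dose response: 5 concentrations. Exposure: 48 h. Format: 96-well plates. Endpoint: linear interpolation; highest concentration if not reached. GI50 marks 50% less growth.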 The source made the active and inactive calls. No stated cut-off is given here; in the data, active = GI50 up to about 1.1 µM and inactive = higher.

Tests used:
Test in all cases: growth of human tumour cells (NCI), 48 h
HL-60 = system: HL-60
SNB-19 = system: SNB-19
CAKI-1 = system: CAKI-1
RXF 393 = system: RXF 393
DMS-114 = system: DMS-114
M19-MEL = system: M19-MEL
SR = system: SR
KM-20L2 = system: KM-20L2
K562 = system: K562
UACC-62 = system: UACC-62
MCF7 = system: MCF7
SNB-78 = system: SNB-78
DLD-1 = system: DLD-1
HOP-18 = system: HOP-18
XF498 = system: XF498
PC-3 = system: PC-3
MDA-MB-231 = system: MDA-MB-231
BT-549 = system: BT-549
MDA-MB-435 = system: MDA-MB-435
MDA-N = system: MDA-N

Structure (SMILES)	GI50 (HL-60)	GI50 (SNB-19)	GI50 (CAKI-1)	GI50 (RXF 393)	GI50 (DMS-114)	GI50 (M19-MEL)	GI50 (SR)	GI50 (KM-20L2)	GI50 (K562)	GI50 (UACC-62)	GI50 (MCF7)	GI50 (SNB-78)	GI50 (DLD-1)	GI50 (HOP-18)	GI50 (XF498)	GI50 (PC-3)	GI50 (MDA-MB-231)	GI50 (BT-549)	GI50 (MDA-MB-435)	GI50 (MDA-N)
COC(=O)C1=C(C)N2CCCOC2(C)C(C(=O)OC)C1c1cccc(Cl)c1 (centres undefined)	16.4 µM (inactive)	42.3 µM (inactive)	17.5 µM (inactive)	33.1 µM (inactive)	19.1 µM (inactive)	20.6 µM (inactive)	> 10 µM (inactive)	24.4 µM (inactive)	27.2 µM (inactive)	15.2 µM (inactive)	–	–	–	–	–	–	–	–	–	–
CCCCC#CS(=O)(=O)C(F)(F)F	23.2 µM (inactive)	> 90.2 µM (inactive)	0.605 µM (active)	20.4 µM (inactive)	37.2 µM (inactive)	–	–	81.5 µM (inactive)	45.4 µM (inactive)	48.2 µM (inactive)	52.6 µM (inactive)	> 100 µM (inactive)	> 100 µM (inactive)	> 100 µM (inactive)	56.9 µM (inactive)	–	–	–	–	–
CO[C@@]12[C@H](COC(N)=O)C3=C(C(=O)C(C)=C(N)C3=O)N1C[C@@H]1N[C@@H]12 [MITOMYCIN]	0.204 µM (active)	–	–	2.01 µM (inactive)	–	–	0.122 µM (active)	1.3 µM (inactive)	2.03 µM (inactive)	–	0.148 µM (active)	–	2.8 µM (inactive)	1.1 µM (active)	–	2.24 µM (inactive)	5.71 µM (inactive)	1.75 µM (inactive)	–	–
COc1ccc2[nH]cc(/C=C(/C)c3ccncc3)c2c1	1.44 µM (inactive)	50.6 µM (inactive)	9.73 µM (inactive)	–	2.62 µM (inactive)	3.72 µM (inactive)	–	–	2.98 µM (inactive)	5.01 µM (inactive)	3.47 µM (inactive)	–	4.52 µM (inactive)	> 100 µM (inactive)	10.7 µM (inactive)	–	–	–	–	–
O=C1/C(=C/c2ccc(Cl)cc2)N=C(c2ccccc2)N1/N=C/c1ccccc1O	28.1 µM (inactive)	> 100 µM (inactive)	7.6 µM (inactive)	11.4 µM (inactive)	–	–	–	–	9.12 µM (inactive)	13.9 µM (inactive)	13.9 µM (inactive)	–	–	–	–	10.3 µM (inactive)	15.1 µM (inactive)	16.4 µM (inactive)	26.7 µM (inactive)	69.5 µM (inactive)
O=S(O)c1cc(Cl)c(O)c(Cl)c1	> 100 µM (inactive)	> 100 µM (inactive)	–	> 100 µM (inactive)	> 100 µM (inactive)	> 100 µM (inactive)	> 100 µM (inactive)	–	> 100 µM (inactive)	> 100 µM (inactive)	–	> 100 µM (inactive)	> 100 µM (inactive)	–	> 100 µM (inactive)	–	–	–	–	–
Nc1ccc(OCC(O)N2C(=O)c3ccccc3C2=O)cc1 (centres undefined)	> 100 µM (inactive)	> 100 µM (inactive)	< 0.01 µM (active)	–	–	–	> 10 µM (inactive)	–	> 100 µM (inactive)	> 100 µM (inactive)	> 100 µM (inactive)	–	–	–	–	> 100 µM (inactive)	> 100 µM (inactive)	–	> 100 µM (inactive)	> 100 µM (inactive)
C#CCCCC(=C)C[C@H](OCc1ccccc1)[C@H]1OC(=O)[C@@H]1C	66.1 µM (inactive)	> 100 µM (inactive)	14.9 µM (inactive)	> 100 µM (inactive)	–	–	44.5 µM (inactive)	–	–	> 100 µM (inactive)	37.2 µM (inactive)	–	–	–	–	48.2 µM (inactive)	13.2 µM (inactive)	> 100 µM (inactive)	48.6 µM (inactive)	22.9 µM (inactive)
COC1/C=C\C=C(/C)C(=O)NC2=CC(=O)C=C(C2=O)C(OC)C(C)CC(OC)C(OC)C(C)/C=C(/C)C1OC(N)=O (centres undefined)	0.132 µM (active)	14.1 µM (inactive)	12.2 µM (inactive)	–	1.12 µM (inactive)	2.2 µM (inactive)	–	3.2 µM (inactive)	0.15 µM (active)	0.76 µM (active)	1.28 µM (inactive)	2.14 µM (inactive)	1.59 µM (inactive)	0.29 µM (active)	1.87 µM (inactive)	–	–	–	–	–
